{
  "source": "ChEMBL document CHEMBL1146854",
  "about": "“Estimation of the hydrophobicity of 2,4-diphenyl-1,3-oxazoline analogs and QSAR analysis of their ovicidal activity against Tetranychus [corrected] urticae” (Bioorg Med Chem Lett, 2006)",
  "key": {"[1]": {"experiment": "Partition coefficient, log P of the compound", "assay_type": "physicochemical", "conditions": "octanol/water"}, "Tetranychus urticae": {"test_system": "Tetranychus urticae", "experiment": "Ovicidal activity against Tetranychus urticae", "assay_type": "functional"}},
  "data": [
    {"compound": "Fc1cccc(F)c1-c1ncco1", "values": [
      {"measurement": "logP", "setting": "[1]", "result": 1.45}
    ]},
    {"compound": "CSc1ccccc1C1=NC(c2ccccc2)CO1", "note": "(stereo unspecified)", "values": [
      {"measurement": "LC50", "setting": "Tetranychus urticae", "result": 100, "unit": "µg/mL"},
      {"measurement": "logP", "setting": "[1]", "result": 3.5}
    ]},
    {"compound": "COc1ccc(C2=NC(c3ccccc3)CO2)cc1", "note": "(stereo unspecified)", "values": [
      {"measurement": "LC50", "setting": "Tetranychus urticae", "result": 100, "unit": "µg/mL"},
      {"measurement": "logP", "setting": "[1]", "result": 3.78}
    ]},
    {"compound": "Clc1ccc(C2=NC(c3ccccc3)CO2)cc1", "note": "(stereo unspecified)", "values": [
      {"measurement": "LC50", "setting": "Tetranychus urticae", "result": 100, "unit": "µg/mL"},
      {"measurement": "logP", "setting": "[1]", "result": 4.48}
    ]},
    {"compound": "c1ccc(C2=NC(c3ccccc3)CO2)cc1", "note": "(stereo unspecified)", "values": [
      {"measurement": "LC50", "setting": "Tetranychus urticae", "result": 10, "unit": "µg/mL"},
      {"measurement": "logP", "setting": "[1]", "result": 3.56}
    ]},
    {"compound": "COc1cccc(C2=NC(c3ccccc3)CO2)c1", "note": "(stereo unspecified)", "values": [
      {"measurement": "LC50", "setting": "Tetranychus urticae", "result": "> 1000", "unit": "µg/mL"},
      {"measurement": "logP", "setting": "[1]", "result": 3.77}
    ]},
    {"compound": "Clc1cccc(C2=NC(c3ccccc3)CO2)c1Cl", "note": "(stereo unspecified)", "values": [
      {"measurement": "LC50", "setting": "Tetranychus urticae", "result": 10, "unit": "µg/mL"},
      {"measurement": "logP", "setting": "[1]", "result": 4.28}
    ]},
    {"compound": "c1ccc(Oc2ccccc2C2=NC(c3ccccc3)CO2)cc1", "note": "(stereo unspecified)", "values": [
      {"measurement": "LC50", "setting": "Tetranychus urticae", "result": 100, "unit": "µg/mL"},
      {"measurement": "logP", "setting": "[1]", "result": 5.61}
    ]},
    {"compound": "Ic1ccccc1-c1ncco1", "values": [
      {"measurement": "logP", "setting": "[1]", "result": 2.3}
    ]},
    {"compound": "O=[N+]([O-])c1ccccc1-c1ncco1", "values": [
      {"measurement": "logP", "setting": "[1]", "result": 1.27}
    ]},
    {"compound": "COc1ccccc1C1=NC(c2ccccc2)CO1", "note": "(stereo unspecified)", "values": [
      {"measurement": "LC50", "setting": "Tetranychus urticae", "result": 10, "unit": "µg/mL"},
      {"measurement": "logP", "setting": "[1]", "result": 3.76}
    ]},
    {"compound": "CCSc1ccccc1C1=NC(c2ccccc2)CO1", "note": "(stereo unspecified)", "values": [
      {"measurement": "LC50", "setting": "Tetranychus urticae", "result": 100, "unit": "µg/mL"},
      {"measurement": "logP", "setting": "[1]", "result": 4.04}
    ]},
    {"compound": "Clc1cccc(C2=NC(c3ccccc3)CO2)c1", "note": "(stereo unspecified)", "values": [
      {"measurement": "LC50", "setting": "Tetranychus urticae", "result": 100, "unit": "µg/mL"},
      {"measurement": "logP", "setting": "[1]", "result": 4.44}
    ]},
    {"compound": "Fc1cccc(Cl)c1C1=NC(c2ccccc2)CO1", "note": "(stereo unspecified)", "values": [
      {"measurement": "LC50", "setting": "Tetranychus urticae", "result": 0.01, "unit": "µg/mL"},
      {"measurement": "logP", "setting": "[1]", "result": 3.45}
    ]},
    {"compound": "Fc1cccc(F)c1C1=NC(c2ccccc2)CO1", "note": "(stereo unspecified)", "values": [
      {"measurement": "LC50", "setting": "Tetranychus urticae", "result": 1, "unit": "µg/mL"},
      {"measurement": "logP", "setting": "[1]", "result": 3.01}
    ]},
    {"compound": "Clc1ccc(Cl)c(C2=NC(c3ccccc3)CO2)c1", "note": "(stereo unspecified)", "values": [
      {"measurement": "LC50", "setting": "Tetranychus urticae", "result": 100, "unit": "µg/mL"},
      {"measurement": "logP", "setting": "[1]", "result": 4.4}
    ]},
    {"compound": "Fc1cccc(Cl)c1-c1ncco1", "values": [
      {"measurement": "logP", "setting": "[1]", "result": 1.89}
    ]},
    {"compound": "FC(F)(F)c1ccccc1C1=NC(c2ccccc2)CO1", "note": "(stereo unspecified)", "values": [
      {"measurement": "LC50", "setting": "Tetranychus urticae", "result": 100, "unit": "µg/mL"},
      {"measurement": "logP", "setting": "[1]", "result": 3.71}
    ]},
    {"compound": "Clc1ccc(C2=NC(c3ccccc3)CO2)c(Cl)c1", "note": "(stereo unspecified)", "values": [
      {"measurement": "LC50", "setting": "Tetranychus urticae", "result": 10, "unit": "µg/mL"},
      {"measurement": "logP", "setting": "[1]", "result": 4.4}
    ]},
    {"compound": "CCOc1ccccc1C1=NC(c2ccccc2)CO1", "note": "(stereo unspecified)", "values": [
      {"measurement": "LC50", "setting": "Tetranychus urticae", "result": "> 1000", "unit": "µg/mL"},
      {"measurement": "logP", "setting": "[1]", "result": 4.22}
    ]},
    {"compound": "Clc1ccccc1C1=NC(c2ccccc2)CO1", "note": "(stereo unspecified)", "values": [
      {"measurement": "LC50", "setting": "Tetranychus urticae", "result": 1, "unit": "µg/mL"},
      {"measurement": "logP", "setting": "[1]", "result": 3.56}
    ]},
    {"compound": "Cc1cccc(C)c1-c1ncco1", "values": [
      {"measurement": "logP", "setting": "[1]", "result": 2.21}
    ]},
    {"compound": "Brc1ccccc1C1=NC(c2ccccc2)CO1", "note": "(stereo unspecified)", "values": [
      {"measurement": "LC50", "setting": "Tetranychus urticae", "result": 0.1, "unit": "µg/mL"},
      {"measurement": "logP", "setting": "[1]", "result": 3.69}
    ]},
    {"compound": "Cc1ccccc1C1=NC(c2ccccc2)CO1", "note": "(stereo unspecified)", "values": [
      {"measurement": "LC50", "setting": "Tetranychus urticae", "result": 100, "unit": "µg/mL"},
      {"measurement": "logP", "setting": "[1]", "result": 3.68}
    ]},
    {"compound": "Cc1ccc(C2=NC(c3ccccc3)CO2)cc1", "note": "(stereo unspecified)", "values": [
      {"measurement": "LC50", "setting": "Tetranychus urticae", "result": "> 1000", "unit": "µg/mL"},
      {"measurement": "logP", "setting": "[1]", "result": 4.11}
    ]},
    {"compound": "FC(F)(F)c1ccccc1-c1ncco1", "values": [
      {"measurement": "logP", "setting": "[1]", "result": 2.15}
    ]},
    {"compound": "Ic1ccccc1C1=NC(c2ccccc2)CO1", "note": "(stereo unspecified)", "values": [
      {"measurement": "LC50", "setting": "Tetranychus urticae", "result": 1, "unit": "µg/mL"},
      {"measurement": "logP", "setting": "[1]", "result": 3.86}
    ]},
    {"compound": "O=[N+]([O-])c1ccccc1C1=NC(c2ccccc2)CO1", "note": "(stereo unspecified)", "values": [
      {"measurement": "LC50", "setting": "Tetranychus urticae", "result": 100, "unit": "µg/mL"},
      {"measurement": "logP", "setting": "[1]", "result": 2.83}
    ]},
    {"compound": "Clc1cccc(Cl)c1C1=NC(c2ccccc2)CO1", "note": "(stereo unspecified)", "values": [
      {"measurement": "LC50", "setting": "Tetranychus urticae", "result": 1, "unit": "µg/mL"},
      {"measurement": "logP", "setting": "[1]", "result": 3.69}
    ]},
    {"compound": "Fc1ccccc1C1=NC(c2ccccc2)CO1", "note": "(stereo unspecified)", "values": [
      {"measurement": "LC50", "setting": "Tetranychus urticae", "result": 10, "unit": "µg/mL"},
      {"measurement": "logP", "setting": "[1]", "result": 3.51}
    ]},
    {"compound": "Cc1cccc(C2=NC(c3ccccc3)CO2)c1", "note": "(stereo unspecified)", "values": [
      {"measurement": "LC50", "setting": "Tetranychus urticae", "result": "> 1000", "unit": "µg/mL"},
      {"measurement": "logP", "setting": "[1]", "result": 4.11}
    ]}
  ]
}
